Results reported in paper PMC6510822, “Identification of anticancer OATP2B1 substrates by an in vitro triple-fluorescence-based cytotoxicity screen” (Archives of Toxicology, 2019).
Read-outs that look alike come from different tables or passages of the source. One block for each compound: values may come before it.

What was measured:
[1] = system: A431-2B1 cells (OATP2B1 expressing); experiment: Fluorescence-based cytotoxicity assay, OATP2B1-expressing A431-2B1 mCh
[2] = system: Mes-Sa-B1 cells (Pgp overexpressing); experiment: Fluorescence-based cytotoxicity assay, Mes-Sa-B1 mOr
[3] = system: Mes-Sa/Dx5 cells; experiment: Fluorescence-based cytotoxicity assay, Mes-Sa/Dx5 eGFP; details: for RR (Dx5): resistance ratio = IC50 Mes-Sa/Dx5 / IC50 parental Mes-Sa
[4] = system: A431-B1 cells (ABCB1/P-glycoprotein expressing); experiment: Fluorescence-based cytotoxicity assay, ABCB1-expressing A431-B1 mCh
[5] = system: A431-G2 cells (ABCG2 expressing); experiment: Fluorescence-based cytotoxicity assay, ABCG2-expressing A431-G2 mOr
[6] = system: A431 cells; experiment: Fluorescence-based cytotoxicity assay, parental A431 eGFP; details: Homo sapiens
[7] = system: OATP2B1; experiment: Fluorescence-based cytotoxicity assay, OATP2B1-expressing A431-2B1 mCh; details: human
[8] = target: T1, OATP2B1 (Homo sapiens, UniProt O94956); experiment: Inhibition of OATP2B1-mediated Cascade Blue uptake (microplate-based uptake assay, A431-2B1 cells)
T1 sequence (O94956 1-709): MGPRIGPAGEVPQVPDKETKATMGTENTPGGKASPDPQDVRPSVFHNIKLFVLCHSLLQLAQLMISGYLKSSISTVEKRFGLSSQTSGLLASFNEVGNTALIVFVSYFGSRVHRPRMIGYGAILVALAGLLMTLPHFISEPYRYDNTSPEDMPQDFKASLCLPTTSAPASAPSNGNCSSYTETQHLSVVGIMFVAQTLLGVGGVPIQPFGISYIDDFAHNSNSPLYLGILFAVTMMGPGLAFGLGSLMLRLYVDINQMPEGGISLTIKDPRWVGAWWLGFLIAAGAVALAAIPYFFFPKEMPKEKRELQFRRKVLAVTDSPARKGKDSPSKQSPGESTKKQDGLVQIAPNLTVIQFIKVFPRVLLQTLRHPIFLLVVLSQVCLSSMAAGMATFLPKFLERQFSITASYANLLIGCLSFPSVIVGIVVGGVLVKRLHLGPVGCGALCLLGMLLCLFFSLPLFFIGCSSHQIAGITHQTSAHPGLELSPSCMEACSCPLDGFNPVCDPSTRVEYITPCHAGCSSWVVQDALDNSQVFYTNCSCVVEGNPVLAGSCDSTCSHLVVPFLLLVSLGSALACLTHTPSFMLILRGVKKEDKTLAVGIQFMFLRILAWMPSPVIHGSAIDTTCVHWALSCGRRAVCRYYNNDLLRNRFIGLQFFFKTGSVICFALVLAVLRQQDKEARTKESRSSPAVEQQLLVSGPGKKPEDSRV

[9] = primary screen, co-culture, Fig. 4 inset
[10] = resistance ratio = IC50 Mes-Sa-B1 / IC50 parental Mes-Sa, triple co-culture screen
[11] = resistance ratio = IC50 A431B1 / IC50 parental A431, triple co-culture screen
[12] = selectivity ratio = IC50 parental Mes-Sa / IC50 Mes-Sa/Dx5, triple co-culture screen

Compound: Nc1ccn([C@@H]2O[C@H](CO)[C@@H](O)C2(F)F)c(=O)n1 [NSC-613327, Gemcitabine]
SR (A431-2B1 vs parental A431), screening of DTP Oncology Set IV [1, 9]: 16.5

Compound: CCC1=C[C@@H]2CN(C1)Cc1c([nH]c3ccccc13)[C@@](C(=O)OC)(c1cc3c(cc1OC)N(C)[C@H]1[C@@](O)(C(=O)OC)[C@H](OC(C)=O)[C@]4(CC)C=CCN5CC[C@]31[C@@H]54)C2 [NSC-608210, Vinorelbine]
RR (Mes-Sa-B1) [2, 10]: 725.00
RR (Dx5) ([3]; triple co-culture screen): 861.00
RR (A431B1) [4, 11]: 232.00

Compound: CC(=O)O[C@H]1C(=O)[C@@]2(C)[C@H]([C@H](OC(=O)c3ccccc3)[C@]3(O)C[C@H](OC(=O)[C@H](O)[C@@H](NC(=O)c4ccccc4)c4ccccc4)C(C)=C1C3(C)C)[C@]1(OC(C)=O)CO[C@@H]1C[C@@H]2O [NSC-125973, Taxol]
RR (Mes-Sa-B1) [2, 10]: 593.3
RR (Dx5) ([3]; triple co-culture screen): 497.67
Effect of OATP2B1 expression on toxicity (A431-2B1 vs A431 eGFP) ([1]; co-culture screen, result in words): not transported by OATP2B1
RR (A431B1) [4, 11]: 50.91

Compound: C1CN1c1nc(N2CC2)nc(N2CC2)n1 [NSC-9706, Triethylenemelamine]
SR (Mes-Sa/DX5) [3]: 26.62

Compound: CC(C)C[C@H](NC(=O)[C@H](CCc1ccccc1)NC(=O)CN1CCOCC1)C(=O)N[C@@H](Cc1ccccc1)C(=O)N[C@@H](CC(C)C)C(=O)[C@@]1(C)CO1 [NSC-758252, Carfilzomib]
RR (Mes-Sa-B1) [2, 10]: 55.50
RR (Dx5) ([3]; triple co-culture screen): 88.00
RR (A431B1) [4, 11]: 47.4

Compound: Nc1ccn([C@@H]2O[C@H](CO)[C@@H](O)[C@@H]2O)c(=O)n1 [NSC-63878, Cytarabine]
SR (A431-2B1 vs parental A431), screening of DTP Oncology Set IV [1]: > 18.12

Compound: Nc1nc(Cl)nc2c1ncn2[C@@H]1O[C@H](CO)[C@@H](O)[C@@H]1F [NSC-606869, Clofarabine]
SR (Mes-Sa-B1) [2]: 0.91
SR (Mes-Sa/DX5) [3, 12]: 3.44
Effect of ABCG2 expression on toxicity (A431-G2 vs parental A431) [5]: conferred resistance

Compound: O=c1[nH]c(=O)n([C@H]2C[C@H](O)[C@@H](CO)O2)cc1F [NSC-27640, Floxuridin]
SR (A431-2B1 vs parental A431), screening of DTP Oncology Set IV [1, 9]: 12.31

Compound: CS(=O)(=O)c1ccc(C(=O)Nc2ccc(Cl)c(-c3ccccn3)c2)c(Cl)c1 [NSC-755986, Vismodegib]
SR (Mes-Sa/DX5) [3, 12]: > 3.31

Compound: Cc1nc(Nc2ncc(C(=O)Nc3c(C)cccc3Cl)s2)cc(N2CCN(CCO)CC2)n1 [NSC-732517, Dasatinib]
RR (Mes-Sa-B1) [2, 10]: 3.147
RR (Dx5) ([3]; triple co-culture screen): > 3.60
RR (A431B1) [4]: 11.5
Effect of ABCG2 expression on toxicity (A431-G2 vs parental A431) [5]: conferred resistance

Compound: CCc1c2c(nc3ccc(OC(=O)N4CCC(N5CCCCC5)CC4)cc13)-c1cc3c(c(=O)n1C2)COC(=O)[C@]3(O)CC [NSC-616348, Irinotecan]
IC50 ([6]; A-431, read-out: IC50 (µM) A431 eGFP, co-culture): 13.8 µM
IC50 ([6]; A-431, read-out: IC50 (µM) A431 eGFP, monoculture): 11.1 µM
Effect of ABCG2 expression on toxicity (A431-G2 vs parental A431) [5]: conferred resistance

Compound: Cc1cn(-c2cc(NC(=O)c3ccc(C)c(Nc4nccc(-c5cccnc5)n4)c3)cc(C(F)(F)F)c2)cn1 [NSC-747599, Nilotinib]
SR (Mes-Sa-B1) ([2]; selectivity ratio = IC50 parental Mes-Sa / IC50 Mes-Sa-B1, triple co-culture screen): 1.23
SR (Mes-Sa/DX5) [3, 12]: 4.68

Compound: C/C(=C\c1csc(C)n1)[C@@H]1C[C@@H]2O[C@]2(C)CCC[C@H](C)[C@H](O)[C@@H](C)C(=O)C(C)(C)[C@@H](O)CC(=O)N1 [NSC-747973, Ixabepilone]
RR (Mes-Sa-B1) [2]: >208.3
RR (Dx5) ([3]; triple co-culture screen): 9.66
RR (A431B1) [4]: 23.32

IC50 [8]: 11 ± 0.7 µM
Compound: CC/C(=C(\c1ccccc1)c1ccc(OCCN(C)C)cc1)c1ccccc1 [NSC-180973, Tamoxifen]
SR, monoculture ([1]; IC50 A431 eGFP / IC50 A4312B1 mCh, monoculture): 0.9
SR (A431-2B1 vs parental A431), screening of DTP Oncology Set IV [1, 9]: 3.49
